Source: patent US9067977B2, “Peptides derivatized with A-B-C-D- and their therapeutical use” (Novo Nordisk A/S, priority 2007, dated 2015)
Starred links: 1 amine or outer side, 2 acyl side, 3 side chain; linkers in the order of their positions; H or OH if unused. Non-standard residues stand in square brackets, D forms with d. Residues, ends and D or L forms follow the SMILES beside them. Groups on a side chain read outwards from the residue. *: point of attachment. X1 = O=C(CCCCCCCCCCCCCCCc1nnn[nH]1)NS(=O)(=O)CCCC(=O)*; X2 = O=C(O)CCCCCCCCCCCCCCCCCCC(=O)NCC1CCC(C(=O)*)CC1; C20 diacid = O=C(O)CCCCCCCCCCCCCCCCCCC(=O)*; C18 diacid = O=C(O)CCCCCCCCCCCCCCCCC(=O)*; d(βAsp) = O=C(O)[C@@H](CC(=O)[*:2])N[*:1]; γGlu = O=C(O)[C@H](CCC(=O)[*:2])N[*:1]; 2Nal = N[C@@H](Cc1ccc2ccccc2c1)C(=O)O; Desaminohistidyl = O=C(CCc1c[nH]cn1)*; AEEA = NCCOCCOCC(=O)O; Aib = CC(C)(N)C(=O)O; Inp = O=C(O)C1CCNCC1; GABA = NCCCC(=O)O

Target: human serum albumin (HSA) (Homo sapiens, UniProt P02768)
Sequence (P02768 25-609): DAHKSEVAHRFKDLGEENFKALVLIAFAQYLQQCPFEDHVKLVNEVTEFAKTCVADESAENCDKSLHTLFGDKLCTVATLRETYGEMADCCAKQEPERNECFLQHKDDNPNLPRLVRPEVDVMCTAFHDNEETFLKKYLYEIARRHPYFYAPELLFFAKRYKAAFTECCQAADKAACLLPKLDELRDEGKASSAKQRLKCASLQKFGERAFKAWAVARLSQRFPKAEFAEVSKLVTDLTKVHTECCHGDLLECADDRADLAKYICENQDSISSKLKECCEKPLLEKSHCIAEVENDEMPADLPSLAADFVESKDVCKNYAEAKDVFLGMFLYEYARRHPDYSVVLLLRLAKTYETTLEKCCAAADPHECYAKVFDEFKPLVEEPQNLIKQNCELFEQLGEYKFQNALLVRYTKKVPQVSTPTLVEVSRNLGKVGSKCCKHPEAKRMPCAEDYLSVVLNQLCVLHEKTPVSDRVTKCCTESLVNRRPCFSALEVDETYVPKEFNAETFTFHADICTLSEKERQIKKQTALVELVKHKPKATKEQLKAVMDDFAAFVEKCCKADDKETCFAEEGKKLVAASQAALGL
Test: Albumin binding affinity, competition scintillation proximity assay
Details: for EC50 at 20 h: human, biotinylated human serum albumin on streptavidin-SPA beads, pH 7.4
Experimental: Streptavidin-SPA beads (GE Healthcare RPNQ0009) were incubated with biotinylated HSA for 5 hours. The beads were washed with buffer to remove unbound HSA. […] After 20 hours of gentle rocking at room temperature the plates were centrifuged and counted on a TopCounter.

| Compound | EC50 at 20 h [nM] | EC50 [nM] |
| --- | --- | --- |
| CC[C@H](C)[C@H](NC(=O)[C@H](Cc1ccccc1)NC(=O)[C@H](CCC(=O)O)NC(=O)[C@H](CCCNC(=N)N)NC(=O)[C@H](C)NC(=O)[C@H](C)NC(=O)[C@H](CCC(N)=O)NC(=O)[C@H](CCC(=O)O)NC(=O)[C@H](CCC(=O)O)NC(=O)[C@H](CC(C)C)NC(=O)[C@H](Cc1ccc(O)cc1)NC(=O)[C@H](CO)NC(=O)[C@H](CO)NC(=O)[C@@H](NC(=O)[C@H](CC(=O)O)NC(=O)[C@H](CO)NC(=O)[C@@H](NC(=O)[C@H](Cc1ccccc1)NC(=O)[C@@H](NC(=O)CNC(=O)[C@H](CCC(=O)O)NC(=O)C(C)(C)NC(=O)[C@@H](N)Cc1c[nH]cn1)[C@@H](C)O)[C@@H](C)O)C(C)C)C(=O)N[C@@H](CCC(=O)O)C(=O)N[C@@H](Cc1c[nH]c2ccccc12)C(=O)N[C@@H](CC(C)C)C(=O)N[C@H](C(=O)N[C@@H](CCCCN)C(=O)NCC(=O)N[C@@H](CCCNC(=N)N)C(=O)N1CCC[C@H]1C(=O)N[C@@H](CCCCNC(=O)COCCOCCNC(=O)CC[C@H](NC(=O)CC[C@H](NC(=O)CCCNC(=O)CCCS(=O)(=O)NC(=O)CCCCCCCCCCCCCCCc1nnn[nH]1)C(=O)O)C(=O)O)C(=O)O)C(C)C [Example 51, [Aib8,Glu22,Arg26,Glu30,Pro37]GLP-1-(7-37)Lys [2-(2-{2-[4-Carboxy-4-(4-carboxy-4-{4-[4-(16-1H-tetrazol-5-yl-hexadecanoylsulfamoyl)butyrylamino]butyrylamino}butyrylamino)butyrylamino]ethoxy}ethoxy)acetyl]] (H-H[Aib]EGTFTSDVSSYLEEQAAREFIEWLVKGRPK([AEEA-γGlu-γGlu-GABA-X1])-OH) | 150 to 300 |  |
| CC[C@H](C)[C@H](NC(=O)[C@H](Cc1ccccc1)NC(=O)[C@H](CCC(=O)O)NC(=O)[C@H](CCCNC(=N)N)NC(=O)[C@H](C)NC(=O)[C@H](C)NC(=O)[C@H](CCC(N)=O)NC(=O)[C@H](CCC(=O)O)NC(=O)[C@H](CCC(=O)O)NC(=O)[C@H](CC(C)C)NC(=O)[C@H](Cc1ccc(O)cc1)NC(=O)[C@H](CO)NC(=O)[C@H](CO)NC(=O)[C@@H](NC(=O)[C@H](CC(=O)O)NC(=O)[C@H](CO)NC(=O)[C@@H](NC(=O)[C@H](Cc1ccccc1)NC(=O)[C@@H](NC(=O)CNC(=O)[C@H](CCC(=O)O)NC(=O)[C@H](C)NC(=O)CCc1c[nH]cn1)[C@@H](C)O)[C@@H](C)O)C(C)C)C(=O)N[C@@H](C)C(=O)N[C@@H](Cc1c[nH]c2ccccc12)C(=O)N[C@@H](CC(C)C)C(=O)N[C@H](C(=O)N[C@@H](CCCNC(=N)N)C(=O)NCC(=O)N[C@@H](CCCNC(=N)N)C(=O)NCC(=O)N[C@@H](CCCCNC(=O)COCCOCCNC(=O)COCCOCCNC(=O)CC[C@H](NC(=O)C1CCC(CNC(=O)CCCCCCCCCCCCCCCCCCC(=O)O)CC1)C(=O)O)C(=O)O)C(C)C (stereo partly shown) [Example 56, [DesaminoHis7,Glu22,Arg26,34]-GLP-1 (7-37)-Lys-[2-(2-{2-[2-(2-{2-[4-Carboxy-4-({4-[(19-carboxynonadecanoylamino)methyl]cyclohexanecarbonyl}amino)butyrylamino]ethoxy}ethoxy)acetylamino]ethoxy}ethoxy)acetyl] peptide] (Desaminohistidyl-AEGTFTSDVSSYLEEQAAREFIAWLVRGRGK([AEEA-AEEA-γGlu-X2])-OH) |  | 150 to 300 |
| CC[C@H](C)[C@H](NC(=O)[C@H](Cc1ccccc1)NC(=O)[C@H](CCC(=O)O)NC(=O)[C@H](CCCNC(=N)N)NC(=O)[C@H](C)NC(=O)[C@H](C)NC(=O)[C@H](CCC(N)=O)NC(=O)[C@H](CCC(=O)O)NC(=O)[C@H](CCC(=O)O)NC(=O)[C@H](CC(C)C)NC(=O)[C@H](Cc1ccc(O)cc1)NC(=O)[C@H](CO)NC(=O)[C@H](CO)NC(=O)[C@@H](NC(=O)[C@H](CC(=O)O)NC(=O)[C@H](CO)NC(=O)[C@@H](NC(=O)[C@H](Cc1ccccc1)NC(=O)[C@@H](NC(=O)CNC(=O)[C@H](CCC(=O)O)NC(=O)[C@H](C)NC(=O)CCc1c[nH]cn1)[C@@H](C)O)[C@@H](C)O)C(C)C)C(=O)N[C@@H](C)C(=O)N[C@@H](Cc1c[nH]c2ccccc12)C(=O)N[C@@H](CC(C)C)C(=O)N[C@H](C(=O)N[C@@H](CCCNC(=N)N)C(=O)NCC(=O)N[C@@H](CCCNC(=N)N)C(=O)NCC(=O)N[C@@H](CCCCNC(=O)CC[C@H](NC(=O)C1CCN(C(=O)CCCCCCCCCCCCCCCCCCC(=O)O)CC1)C(=O)O)C(=O)O)C(C)C [Example 62, [DesaminoHis7,Glu22,Arg26,34]-GLP-1 (7-37)-Lys-((S)-4-Carboxy-4-{[1-(19-carboxy-nonadecanoyl)-piperidine-4-carbonyl]-amino}-butyryl) peptide] (Desaminohistidyl-AEGTFTSDVSSYLEEQAAREFIAWLVRGRGK([γGlu-Inp-C20 diacid])-OH) |  | 300 to 800 |
| CC[C@H](C)[C@H](NC(=O)[C@H](Cc1ccccc1)NC(=O)[C@H](CCC(=O)O)NC(=O)[C@H](CCCNC(=N)N)NC(=O)[C@H](C)NC(=O)[C@H](C)NC(=O)[C@H](CCC(N)=O)NC(=O)CNC(=O)[C@H](CCC(=O)O)NC(=O)[C@H](CC(C)C)NC(=O)[C@H](Cc1ccc(O)cc1)NC(=O)[C@H](CO)NC(=O)[C@H](CO)NC(=O)[C@@H](NC(=O)[C@H](CC(=O)O)NC(=O)[C@H](CO)NC(=O)[C@@H](NC(=O)[C@H](Cc1ccccc1)NC(=O)[C@@H](NC(=O)CNC(=O)[C@H](CCC(=O)O)NC(=O)[C@H](C)NC(=O)CCc1c[nH]cn1)[C@@H](C)O)[C@@H](C)O)C(C)C)C(=O)N[C@@H](C)C(=O)N[C@@H](Cc1c[nH]c2ccccc12)C(=O)N[C@@H](CC(C)C)C(=O)N[C@H](C(=O)N[C@@H](CCCNC(=N)N)C(=O)NCC(=O)N[C@@H](CCCNC(=N)N)C(=O)N[C@@H](CCCCNC(=O)COCCOCCNC(=O)COCCOCCNC(=O)CC[C@H](NC(=O)[C@H]1CC[C@H](CNC(=O)CCCCCCCCCCCCCCCCCCC(=O)O)CC1)C(=O)O)C(N)=O)C(C)C [Example 25] |  | > 2000 |
| CC[C@H](C)[C@H](NC(=O)[C@H](Cc1ccccc1)NC(=O)[C@H](CCC(=O)O)NC(=O)[C@H](CCCCNC(=O)COCCOCCNC(=O)CC[C@H](NC(=O)CC[C@H](NC(=O)CCCCCNC(=O)CCCS(=O)(=O)NC(=O)CCCCCCCCCCCCCCCc1nnn[nH]1)C(=O)O)C(=O)O)NC(=O)[C@H](C)NC(=O)[C@H](C)NC(=O)[C@H](CCC(N)=O)NC(=O)CNC(=O)[C@H](CCC(=O)O)NC(=O)[C@H](CC(C)C)NC(=O)[C@H](Cc1ccc(O)cc1)NC(=O)[C@H](CO)NC(=O)[C@H](CO)NC(=O)[C@@H](NC(=O)[C@H](CC(=O)O)NC(=O)[C@H](CO)NC(=O)[C@@H](NC(=O)[C@H](Cc1ccccc1)NC(=O)[C@@H](NC(=O)CNC(=O)[C@H](CCC(=O)O)NC(=O)C(C)(C)NC(=O)[C@@H](N)Cc1c[nH]cn1)[C@@H](C)O)[C@@H](C)O)C(C)C)C(=O)N[C@@H](C)C(=O)N[C@@H](Cc1c[nH]c2ccccc12)C(=O)N[C@@H](CC(C)C)C(=O)N[C@H](C(=O)N[C@@H](CCCNC(=N)N)C(=O)O)C(C)C [Example 38, N-epsilon26-[2-(2-{2-[(S)-4-Carboxy-4-((S)-4-carboxy-4-{6-[4-(16-(1H-tetrazol-5-yl)hexadecanoylsulfamoyl)butyrylamino]hexanoylamino}butyrylamino)butyrylamino]ethoxy}ethoxy)acetyl][Aib8,Arg34]GLP-1-(7-34)] | 1 to 100 |  |
| CC[C@H](C)[C@H](NC(=O)[C@H](Cc1ccccc1)NC(=O)[C@H](CCC(=O)O)NC(=O)[C@H](CCCNC(=N)N)NC(=O)[C@H](C)NC(=O)[C@H](C)NC(=O)[C@H](CCC(N)=O)NC(=O)CNC(=O)[C@H](CCC(=O)O)NC(=O)[C@H](CCCCNC(=O)COCCOCCNC(=O)COCCOCCNC(=O)C[C@@H](NC(=O)C1CCN(C(=O)CCCCCCCCCCCCCCCCC(=O)O)CC1)C(=O)O)NC(=O)[C@H](Cc1ccc(O)cc1)NC(=O)[C@H](CO)NC(=O)[C@H](CO)NC(=O)[C@@H](NC(=O)[C@H](CC(=O)O)NC(=O)[C@H](CO)NC(=O)[C@@H](NC(=O)[C@H](Cc1ccc2ccccc2c1)NC(=O)[C@@H](NC(=O)CNC(=O)[C@H](CCC(=O)O)NC(=O)C(C)(C)NC(=O)[C@@H](N)Cc1c[nH]cn1)[C@@H](C)O)[C@@H](C)O)C(C)C)C(=O)N[C@@H](CCC(=O)O)C(=O)N[C@@H](Cc1c[nH]c2ccccc12)C(=O)N[C@@H](CC(C)C)C(=O)N[C@H](C(=O)N[C@@H](CCCCN)C(=O)NCC(=O)N[C@@H](CCCNC(=N)N)C(=O)NCC(N)=O)C(C)C [Example 13, N-ε^20({2-[2-(2-{2-[2-((R)-3-carboxy-3-{[1-(17-carboxyheptadecanoyl)piperidine-4-carbonyl]amino}propionylamino)ethoxy]ethoxy}acetylamino)ethoxy]ethoxy}acetyl) [Aib^8,Lys^20,Arg^26,2-Naphtylalanine^12, Glu^30]GLP-1-(7-37)amide] (H-H[Aib]EGT[2Nal]TSDVSSYK([AEEA-AEEA-d(βAsp)-Inp-C18 diacid])EGQAAREFIEWLVKGRG-NH2; N-terminus assumed) |  | 150 to 300 |
| CC[C@H](C)[C@H](NC(=O)[C@H](Cc1ccc2ccccc2c1)NC(=O)[C@H](CCC(=O)O)NC(=O)[C@H](CCCNC(=N)N)NC(=O)[C@H](C)NC(=O)[C@H](C)NC(=O)[C@H](CCC(N)=O)NC(=O)CNC(=O)[C@H](CCC(=O)O)NC(=O)[C@H](CCCCNC(=O)COCCOCCNC(=O)COCCOCCNC(=O)C[C@@H](NC(=O)C1CCN(C(=O)CCCCCCCCCCCCCCCCC(=O)O)CC1)C(=O)O)NC(=O)[C@H](Cc1ccc(O)cc1)NC(=O)[C@H](CO)NC(=O)[C@H](CO)NC(=O)[C@@H](NC(=O)[C@H](CC(=O)O)NC(=O)[C@H](CO)NC(=O)[C@@H](NC(=O)[C@H](Cc1ccccc1)NC(=O)[C@@H](NC(=O)CNC(=O)[C@H](CCC(=O)O)NC(=O)C(C)(C)NC(=O)[C@@H](N)Cc1c[nH]cn1)[C@@H](C)O)[C@@H](C)O)C(C)C)C(=O)N[C@@H](CCC(=O)O)C(=O)N[C@@H](Cc1c[nH]c2ccccc12)C(=O)N[C@@H](CC(C)C)C(=O)N[C@H](C(=O)N[C@@H](CCCCN)C(=O)NCC(=O)N[C@@H](CCCNC(=N)N)C(=O)NCC(N)=O)C(C)C [Example 11, N-ε^20({2-[2-(2-{2-[2-((R)-3-carboxy-3-{[1-(17-carboxyheptadecanoyl)piperidine-4-carbonyl]amino}propionylamino)ethoxy]ethoxy}acetylamino)ethoxy]ethoxy}acetyl) [Aib^8,Lys^20,Arg^26,2-Naphtylalanine^28, Glu^30]GLP-1 (7-37)amide] (H-H[Aib]EGTFTSDVSSYK([AEEA-AEEA-d(βAsp)-Inp-C18 diacid])EGQAARE[2Nal]IEWLVKGRG-NH2; N-terminus assumed) |  | 800 to 2000 |
